Data published in patent US12006311B2, “Compounds for use in preventing or treating cancer” (FUNDACIÓ HOSPITAL UNIVERSITARI VALL D'HEBRON—INSTITUT DE …, priority 2018, dated 2024).

Columns and labels:
[1] = test system: rhabdomyosarcoma cell line RH4; assay: cell growth test based on Methyl violet staining, RH4; details: for anti-proliferative activity (cell growth in percentage with respect to vehicle-treated cells): 10 microM, 5 days of incubation, compared with Vismodegib (FIG. 1)
Method: (§1) FIG. 1 represents the effects in percentage with respect to vehicle-treated cells (DMSO) of five compounds according to formula (I) (IUCT-0460, IUCT-0462, IUCT-0463, IUCT-0467, IUCT-0469) and the reference compound Vismodegib on cell growth of RH4 rhabdomyosarcoma cells after 5 day incubation (mean+/−SD). All compounds were used at a concentration of 10 microM. Statistical analysis was performed using ANOVA. As statistical differences were observed (p=0), the pairwise comparison against the vehicle control was made using the Tukey test. Notation: ***=statistically-significant difference with a p-value<0.001, **=p-value<0.01 and *=p-value<0.05.
(§2) The measurements were taken using an in vitro test to measure cell growth based on Methyl violet staining after 5 days of incubation with the aforementioned drugs or control vehicle (DMSO). The procedure was carried out in a 96-well plate and cells were fixed for 30 minutes with 4% paraformaldehyde (PFA) at room temperature. After 3 washes with phosphate-buffered saline (PBS), cells were stained for 30 minutes at room temperature with Methyl violet (dilution 1/25 of a stock solution made with 1.5% w/v in PBS). After 5 washes, and the addition of acetic acid (15% in water), plates were read in a spectrophotometer at 590 nm. All conditions were tested in 8 independent wells and results expressed as a mean of all replicates (FIG. 1).
Additional measurements using the same procedure were made specifically for the compound IUCT-0463 to obtain a dose-response curve from 1 to 50 μM in the cell line RH4.

[2] = test system: rhabdomyosarcoma cell line RD; assay: cell growth test based on Methyl violet staining, RD; details: RD cells; for anti-proliferative activity (cell growth in percentage with respect to the vehicle control): 10 microM, 5 days of incubation, compared with Vismodegib (FIG. 3)
Method: as §1, with “FIG. 3” for “FIG. 1”, “effects (in” for “effects in”, “to the vehicle control DMSO)” for “to vehicle-treated cells (DMSO)”, “of RD” for “of RH4”
as §2, with “3).” for “1).”
Additional measurements using the same procedure were made specifically for the compound IUCT-0463 to obtain a dose-response curve from 1 to 50 μM in the cell line RD.

[3] = test system: panel of cancer cell lines (RD, RH4, RH30, SKNBE2, SKNAS, U373MG, SKES1, TC71, PC3, HeLa, A549, MDA-MB231, HCT116); assay: cell growth test based on Methyl violet staining, panel of cancer cell lines; details: panel of 13 cancer cell lines, 10 microM, 5 day incubation (FIG. 5)
Method: The cell lines analyzed are as follows: RD, RH4 and RH30 (rhabdomyosarcoma, RMS); SKNBE2 and SKNAS (neuroblastoma, NBL); U373MG (glioblastoma, GBL); SKES1 and TC71 (Ewing's sarcoma, EWING); PC3 (prostate cancer, PC); HeLa (epitheloid cervix carcinoma, ECC); A549 (lung cancer, LC); MDA-MB231 (breast cancer, BC) and HCT116 (colorectal cancer, CC). Statistical analysis was performed using ANOVA. As statistical differences were observed (p=0), the pairwise comparison against the vehicle control was made using the Tukey test. Notation: ***=statistically-significant difference with a p-value<0.001, **=p-value<0.01 and *=p-value<0.05.
With the compound showing a better cell growth reduction (IUCT-0463), additional tests were performed with the aim of studying the possible application of this family of compounds to other cancers. The procedure was carried out in a 96-well plate and cells were fixed for 30 minutes with 4% paraformaldehyde (PFA) at room temperature. After 3 washes with phosphate-buffered saline (PBS), cells were stained for 30 minutes at room temperature with Methyl violet (dilution 1/25 of a stock solution made with 1.5% w/v in PBS). After 5 washes, and the addition of acetic acid (15% in water), plates were read in a spectrophotometer at 590 nm.

Row | SMILES | anti-proliferative activity (cell growth in percentage with respect to vehicle-treated cells) [1] | anti-proliferative activity (cell growth in percentage with respect to the vehicle control) [2] | anti-tumor activity, dose-response curve ([1]; RH4 cells, dose-response curve from 1 to 50 μM, compared with Vismodegib (FIG. 2)) | anti-tumor activity, dose-response curve ([2]; dose-response curve from 1 to 50 μM, compared with Vismodegib (FIG. 4)) | cell proliferation (cell growth in percentage with respect to the vehicle control) [3]
1 | COc1ccccc1-c1ccc(N2CCCC(N(CC(=O)N3CCOCC3)S(=O)(=O)c3ccc4c(c3)OCO4)C2=O)c(F)c1 (stereo not shown) [IUCT-0467, N-(1-(3-fluoro-2′-methoxy-[1,1′-biphenyl]-4-yl)-2-oxopiperidin-3-yl)-N-(2-morpholino-2-oxoethyl)benzo[d][1,3]dioxole-5-sulfonamide] | better anti-proliferative activity than the reference compound Vismodegib | better anti-proliferative activity than the reference compound Vismodegib |  |  | 
2 | COc1ccccc1-c1ccc(N2CCCC(NS(=O)(=O)c3ccc(-c4ccccn4)s3)C2=O)c(F)c1 (stereo not shown) [IUCT-0463, N-(1-(3-fluoro-2′-methoxy-[1,1′-biphenyl]-4-yl)-2-oxopiperidin-3-yl)-5-(pyridin-2-yl)thiophene-2-sulfonamide] | better anti-proliferative activity than the reference compound Vismodegib | better anti-proliferative activity than the reference compound Vismodegib | clear improvement of the anti-tumor activity when compared to the reference compound Vismodegib | clear improvement of the anti-tumor activity when compared to the reference compound Vismodegib | remarkable rediction of cell proliferation in the majority of the cell lines analized
3 | CCOC(=O)CN(C1CCCN(c2ccc(-c3ccccc3OC)cc2F)C1=O)S(=O)(=O)c1ccc(-c2ccccn2)s1 (stereo not shown) [IUCT-0469, Ethyl N-(1-(3-fluoro-2′-methoxy-[1,1′-biphenyl]-4-yl)-2-oxopiperidin-3-yl)-N-((5-(pyridin-2-yl)thiophen-2-yl)sulfonyl)glycinate] | better anti-proliferative activity than the reference compound Vismodegib | better anti-proliferative activity than the reference compound Vismodegib |  |  | 
4 | COc1ccccc1-c1ccc(N2CCCC(NS(=O)(=O)c3cc(Cl)c(Cl)s3)C2=O)c(F)c1 (stereo not shown) [IUCT-0460, 4,5-Dichloro-N-(1-(3-fluoro-2′-methoxy-[1,1′-biphenyl]-4-yl)-2-oxopiperidin-3-yl)thiophene-2-sulfonamide] | better anti-proliferative activity than the reference compound Vismodegib | better anti-proliferative activity than the reference compound Vismodegib |  |  | 
5 | COc1ccccc1-c1ccc(N2CCCC(NS(=O)(=O)c3ccc4c(c3)OCO4)C2=O)c(F)c1 (stereo not shown) [IUCT-0462, N-(1-(3-fluoro-2′-methoxy-[1,1′-biphenyl]-4-yl)-2-oxopiperidin-3-yl)benzo[d][1,3]dioxole-5-sulfonamide] | better anti-proliferative activity than the reference compound Vismodegib | better anti-proliferative activity than the reference compound Vismodegib |  |  | 
